Data as given in patent US7118895B2, “Process for producing aglycon by using diglycosidase and flavor-improved food containing the aglycon and converting agent to be used in the process” (Amano Enzyme Inc., priority 2000, dated 2006).

Tested on: Crude diglycosidase
Assay: Examination of substrate concentration in the conversion into isoflavone aglycons by diglycosidase using soybean materials;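 further: percent of the isoflavone family total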
Assay type: biochemical, Penicillium multicolor IAM7153
Protocol: Into 20 mM acetate buffer of pH 4.0 was suspended 0.1 g, 0.25 g, 0.5 g, 1.0 g, or 1.5 g of each of various soybean materials (roasted soy flour (manufactured by Fuji Shokuryo K.K.), soymilk (manufactured by Gitoh Shokuhin K.K.), defatted soybean (manufactured by Fuji Seiyu K.K.), concentrated soybean protein (manufactured by Fuji Seiyu K.K.)). The pH of the suspension was measured and the liquid volume was adjusted to 4.5 mL while the pH was adjusted to 4.0 with 1N hydrochloric acid. An enzyme solution wherein diglycosidase activity of crude diglycosidase was adjusted to 1.88 AU/mL was added thereto in an amount of 0.5 mL, whereby the final liquid volume was 5.0 mL. Namely, the ratio of the soybean material in the reaction mixture was 2%, 5%, 10%, 20%, or 30% (w/v). The whole was reacted at 55° C. under shaking. To 5 mL of the reaction mixture was added 7 mL of ethanol after 0, 1, 3, and 6 hours of the reaction. After ultrasonication, the mixture was thoroughly mixed. It was subjected to centrifugal separation at 2,000 rpm and room temperature for 5 minutes. Then, […] of the supernatant was placed in a 1.5 mL microtube and was subjected to centrifugal separation at 15,000 rpm and 4° C. for 10 minutes. The supernatant was filtered through a filter and each sample was suitably diluted by a factor of 1 to 6 depending on the substrate concentration. Fifty μL of the diluted solution was analyzed by HLPC (Tables 27 to 38).

[1] = soymilk, substrate concentration 2%, heat treatment of enzyme no, reaction time 0 h
[2] = soymilk, substrate concentration 2%, heat treatment of enzyme no, reaction time 1 h
[3] = soymilk, substrate concentration 2%, heat treatment of enzyme no, reaction time 3 h
[4] = soymilk, substrate concentration 2%, heat treatment of enzyme no, reaction time 6 h
[5] = soymilk, substrate concentration 2%, heat treatment of enzyme yes, reaction time 6 h
[6] = soymilk, substrate concentration 5%, heat treatment of enzyme no, reaction time 0 h
[7] = soymilk, substrate concentration 5%, heat treatment of enzyme no, reaction time 1 h
[8] = soymilk, substrate concentration 5%, heat treatment of enzyme no, reaction time 3 h
[9] = soymilk, substrate concentration 5%, heat treatment of enzyme no, reaction time 6 h
[10] = soymilk, substrate concentration 5%, heat treatment of enzyme yes, reaction time 6 h
[11] = soymilk, substrate concentration 10%, heat treatment of enzyme no, reaction time 0 h
[12] = soymilk, substrate concentration 10%, heat treatment of enzyme no, reaction time 1 h
[13] = soymilk, substrate concentration 10%, heat treatment of enzyme no, reaction time 3 h
[14] = soymilk, substrate concentration 10%, heat treatment of enzyme no, reaction time 6 h
[15] = soymilk, substrate concentration 10%, heat treatment of enzyme yes, reaction time 6 h
[16] = soymilk, substrate concentration 20%, heat treatment of enzyme no, reaction time 0 h
[17] = soymilk, substrate concentration 20%, heat treatment of enzyme no, reaction time 1 h
[18] = soymilk, substrate concentration 20%, heat treatment of enzyme no, reaction time 3 h
[19] = soymilk, substrate concentration 20%, heat treatment of enzyme no, reaction time 6 h
[20] = soymilk, substrate concentration 20%, heat treatment of enzyme yes, reaction time 6 h
[21] = soymilk, substrate concentration 30%, heat treatment of enzyme no, reaction time 0 h
[22] = soymilk, substrate concentration 30%, heat treatment of enzyme no, reaction time 1 h
[23] = soymilk, substrate concentration 30%, heat treatment of enzyme no, reaction time 3 h
[24] = soymilk, substrate concentration 30%, heat treatment of enzyme no, reaction time 6 h
[25] = soymilk, substrate concentration 30%, heat treatment of enzyme yes, reaction time 6 h

`CC(=O)OC[C@H]1O[C@@H](Oc2ccc3c(=O)c(-c4ccc(O)cc4)coc3c2)[C@H](O)[C@@H](O)[C@@H]1O` [acetly-daidzin] was tested, and the “Decomposition efficiency: ratio of each glycoside/aglycon within its isoflavone family” value (concentrated soybean protein, substrate concentration 2%, heat treatment of enzyme no, reaction time 0 h) was 44.0%, the “Decomposition efficiency: ratio of each glycoside/aglycon within its isoflavone family” value (concentrated soybean protein, substrate concentration 2%, heat treatment of enzyme no, reaction time 1 h) was 17.8% and the “Decomposition efficiency: ratio of each glycoside/aglycon within its isoflavone family” value (concentrated soybean protein, substrate concentration 2%, heat treatment of enzyme no, reaction time 3 h) was 5.3%. The “Decomposition efficiency: ratio of each glycoside/aglycon within its isoflavone family” value (concentrated soybean protein, substrate concentration 2%, heat treatment of enzyme no, reaction time 6 h) was “not detected”, the “Decomposition efficiency: ratio of each glycoside/aglycon within its isoflavone family” value (concentrated soybean protein, substrate concentration 2%, heat treatment of enzyme yes, reaction time 6 h) was 43.2% and the “Decomposition efficiency: ratio of each glycoside/aglycon within its isoflavone family” value (concentrated soybean protein, substrate concentration 5%, heat treatment of enzyme no, reaction time 0 h) was 44.0%. For the same compound, the “Decomposition efficiency: ratio of each glycoside/aglycon within its isoflavone family” value (concentrated soybean protein, substrate concentration 5%, heat treatment of enzyme no, reaction time 3 h) was 20.5%, the “Decomposition efficiency: ratio of each glycoside/aglycon within its isoflavone family” value (concentrated soybean protein, substrate concentration 5%, heat treatment of enzyme no, reaction time 6 h) was 12.0% and the “Decomposition efficiency: ratio of each glycoside/aglycon within its isoflavone family” value (concentrated soybean protein, substrate concentration 5%, heat treatment of enzyme yes, reaction time 6 h) was 43.0%. For the same compound, the “Decomposition efficiency: ratio of each glycoside/aglycon within its isoflavone family” value (concentrated soybean protein, substrate concentration 10%, heat treatment of enzyme no, reaction time 0 h) was 44.2%, the “Decomposition efficiency: ratio of each glycoside/aglycon within its isoflavone family” value (concentrated soybean protein, substrate concentration 10%, heat treatment of enzyme no, reaction time 1 h) was 39.7% and the “Decomposition efficiency: ratio of each glycoside/aglycon within its isoflavone family” value (concentrated soybean protein, substrate concentration 10%, heat treatment of enzyme no, reaction time 3 h) was 32.9%. The “Decomposition efficiency: ratio of each glycoside/aglycon within its isoflavone family” value (concentrated soybean protein, substrate concentration 10%, heat treatment of enzyme no, reaction time 6 h) was 26.9%, the “Decomposition efficiency: ratio of each glycoside/aglycon within its isoflavone family” value (concentrated soybean protein, substrate concentration 10%, heat treatment of enzyme yes, reaction time 6 h) was 43.4% and the “Decomposition efficiency: ratio of each glycoside/aglycon within its isoflavone family” value (concentrated soybean protein, substrate concentration 20%, heat treatment of enzyme no, reaction time 0 h) was 44.1%. The “Decomposition efficiency: ratio of each glycoside/aglycon within its isoflavone family” value (concentrated soybean protein, substrate concentration 20%, heat treatment of enzyme no, reaction time 3 h) was 41.5%, the “Decomposition efficiency: ratio of each glycoside/aglycon within its isoflavone family” value (concentrated soybean protein, substrate concentration 20%, heat treatment of enzyme no, reaction time 6 h) was 37.9% and the “Decomposition efficiency: ratio of each glycoside/aglycon within its isoflavone family” value (concentrated soybean protein, substrate concentration 20%, heat treatment of enzyme yes, reaction time 6 h) was 44.0%. For the same compound, the “Decomposition efficiency: ratio of each glycoside/aglycon within its isoflavone family” value (concentrated soybean protein, substrate concentration 30%, heat treatment of enzyme no, reaction time 0 h) was 49.2%, the “Decomposition efficiency: ratio of each glycoside/aglycon within its isoflavone family” value (concentrated soybean protein, substrate concentration 30%, heat treatment of enzyme no, reaction time 1 h) was 56.6% and the “Decomposition efficiency: ratio of each glycoside/aglycon within its isoflavone family” value (concentrated soybean protein, substrate concentration 30%, heat treatment of enzyme no, reaction time 3 h) was 49.9%. For the same compound, the “Decomposition efficiency: ratio of each glycoside/aglycon within its isoflavone family” value (concentrated soybean protein, substrate concentration 30%, heat treatment of enzyme no, reaction time 6 h) was 42.8% and the “Decomposition efficiency: ratio of each glycoside/aglycon within its isoflavone family” value (concentrated soybean protein, substrate concentration 30%, heat treatment of enzyme yes, reaction time 6 h) was 48.4%.

`CC(=O)OC[C@H]1O[C@@H](Oc2ccc3c(=O)c(-c4ccc(O)cc4)coc3c2)[C@H](O)[C@@H](O)[C@@H]1O` [acetyl-daidzin] was tested, and the “Decomposition efficiency: ratio of each glycoside/aglycon within its isoflavone family” value [1] was “not detected”, the “Decomposition efficiency: ratio of each glycoside/aglycon within its isoflavone family” value [2] was “not detected” and the “Decomposition efficiency: ratio of each glycoside/aglycon within its isoflavone family” value [3] was “not detected”. The “Decomposition efficiency: ratio of each glycoside/aglycon within its isoflavone family” value [4] was “not detected”, the “Decomposition efficiency: ratio of each glycoside/aglycon within its isoflavone family” value [5] was “not detected” and the “Decomposition efficiency: ratio of each glycoside/aglycon within its isoflavone family” value [6] was “not detected”. The “Decomposition efficiency: ratio of each glycoside/aglycon within its isoflavone family” value [7] was “not detected”, the “Decomposition efficiency: ratio of each glycoside/aglycon within its isoflavone family” value [8] was “not detected” and the “Decomposition efficiency: ratio of each glycoside/aglycon within its isoflavone family” value [9] was “not detected”. For the same compound, the “Decomposition efficiency: ratio of each glycoside/aglycon within its isoflavone family” value [10] was “not detected”, the “Decomposition efficiency: ratio of each glycoside/aglycon within its isoflavone family” value [11] was “not detected” and the “Decomposition efficiency: ratio of each glycoside/aglycon within its isoflavone family” value [12] was “not detected”. The “Decomposition efficiency: ratio of each glycoside/aglycon within its isoflavone family” value [13] was “not detected”, the “Decomposition efficiency: ratio of each glycoside/aglycon within its isoflavone family” value [14] was “not detected” and the “Decomposition efficiency: ratio of each glycoside/aglycon within its isoflavone family” value [15] was “not detected”. The “Decomposition efficiency: ratio of each glycoside/aglycon within its isoflavone family” value [16] was “not detected”, the “Decomposition efficiency: ratio of each glycoside/aglycon within its isoflavone family” value [17] was “not detected” and the “Decomposition efficiency: ratio of each glycoside/aglycon within its isoflavone family” value [18] was “not detected”. For the same compound, the “Decomposition efficiency: ratio of each glycoside/aglycon within its isoflavone family” value [19] was “not detected”, the “Decomposition efficiency: ratio of each glycoside/aglycon within its isoflavone family” value [20] was “not detected” and the “Decomposition efficiency: ratio of each glycoside/aglycon within its isoflavone family” value [21] was “not detected”. The “Decomposition efficiency: ratio of each glycoside/aglycon within its isoflavone family” value [22] was “not detected”, the “Decomposition efficiency: ratio of each glycoside/aglycon within its isoflavone family” value [23] was “not detected” and the “Decomposition efficiency: ratio of each glycoside/aglycon within its isoflavone family” value [24] was “not detected”. The “Decomposition efficiency: ratio of each glycoside/aglycon within its isoflavone family” value [25] was “not detected”.

For `CC(=O)OC[C@H]1O[C@@H](Oc2cc(O)c3c(=O)c(-c4ccc(O)cc4)coc3c2)[C@H](O)[C@@H](O)[C@@H]1O` [acetyl-genistin], the “Decomposition efficiency: ratio of each glycoside/aglycon within its isoflavone family” value [1] was “not detected”, the “Decomposition efficiency: ratio of each glycoside/aglycon within its isoflavone family” value [2] was “not detected” and the “Decomposition efficiency: ratio of each glycoside/aglycon within its isoflavone family” value [3] was “not detected”. For the same compound, the “Decomposition efficiency: ratio of each glycoside/aglycon within its isoflavone family” value [4] was “not detected”, the “Decomposition efficiency: ratio of each glycoside/aglycon within its isoflavone family” value [5] was “not detected” and the “Decomposition efficiency: ratio of each glycoside/aglycon within its isoflavone family” value [6] was “not detected”. For the same compound, the “Decomposition efficiency: ratio of each glycoside/aglycon within its isoflavone family” value [7] was “not detected”, the “Decomposition efficiency: ratio of each glycoside/aglycon within its isoflavone family” value [8] was “not detected” and the “Decomposition efficiency: ratio of each glycoside/aglycon within its isoflavone family” value [9] was “not detected”. For the same compound, the “Decomposition efficiency: ratio of each glycoside/aglycon within its isoflavone family” value [10] was “not detected”, the “Decomposition efficiency: ratio of each glycoside/aglycon within its isoflavone family” value [11] was 0.5% and the “Decomposition efficiency: ratio of each glycoside/aglycon within its isoflavone family” value [12] was “not detected”. The “Decomposition efficiency: ratio of each glycoside/aglycon within its isoflavone family” value [13] was “not detected”, the “Decomposition efficiency: ratio of each glycoside/aglycon within its isoflavone family” value [14] was “not detected” and the “Decomposition efficiency: ratio of each glycoside/aglycon within its isoflavone family” value [15] was 0.5%. The “Decomposition efficiency: ratio of each glycoside/aglycon within its isoflavone family” value [16] was 0.6%, the “Decomposition efficiency: ratio of each glycoside/aglycon within its isoflavone family” value [17] was “not detected” and the “Decomposition efficiency: ratio of each glycoside/aglycon within its isoflavone family” value [18] was “not detected”. For the same compound, the “Decomposition efficiency: ratio of each glycoside/aglycon within its isoflavone family” value [19] was “not detected”, the “Decomposition efficiency: ratio of each glycoside/aglycon within its isoflavone family” value [20] was 0.6% and the “Decomposition efficiency: ratio of each glycoside/aglycon within its isoflavone family” value [21] was 0.6%. For the same compound, the “Decomposition efficiency: ratio of each glycoside/aglycon within its isoflavone family” value [22] was “not detected”, the “Decomposition efficiency: ratio of each glycoside/aglycon within its isoflavone family” value [23] was “not detected” and the “Decomposition efficiency: ratio of each glycoside/aglycon within its isoflavone family” value [24] was “not detected”. For the same compound, the “Decomposition efficiency: ratio of each glycoside/aglycon within its isoflavone family” value [25] was 0.6%.
